From PMC12508156, “Non-canonical dihydrolipoyl transacetylase promotes chemotherapy resistance via mitochondrial tetrahydrofolate signaling” (Nature Communications, 2025)
“And” between values parts separate entries of the source, which are not always exact repeats. Equal values may be shown once.

Assays:
[1] = molecular target: T1, pyruvate dehydrogenase complex (PDC) (Homo sapiens, UniProt P08559+P09622+P10515); assay: PDC activity (PDH enzyme activity microplate assay); format: cell-based; conditions: cisplatin 24 h, NADH production from PDH reaction, normalised, n=1-3: biological replicates, listed as cis
T1 construct: endogenous in cells; host or cells: A549cisR and KB-3-1cisR cells (lysates; Abcam PDH Enzyme Activity Microplate Assay Kit)
T1 sequence (P08559 30-390): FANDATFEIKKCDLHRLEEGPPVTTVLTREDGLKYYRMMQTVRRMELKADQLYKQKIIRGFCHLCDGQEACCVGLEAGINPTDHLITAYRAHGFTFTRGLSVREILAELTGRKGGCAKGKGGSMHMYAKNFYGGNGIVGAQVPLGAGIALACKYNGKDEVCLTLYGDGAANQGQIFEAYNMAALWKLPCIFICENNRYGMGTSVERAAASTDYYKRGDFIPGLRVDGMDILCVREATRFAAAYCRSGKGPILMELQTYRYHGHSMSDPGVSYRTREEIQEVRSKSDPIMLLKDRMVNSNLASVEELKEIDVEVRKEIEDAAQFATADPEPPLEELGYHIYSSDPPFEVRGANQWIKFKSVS
T1 sequence (P10515 87-647): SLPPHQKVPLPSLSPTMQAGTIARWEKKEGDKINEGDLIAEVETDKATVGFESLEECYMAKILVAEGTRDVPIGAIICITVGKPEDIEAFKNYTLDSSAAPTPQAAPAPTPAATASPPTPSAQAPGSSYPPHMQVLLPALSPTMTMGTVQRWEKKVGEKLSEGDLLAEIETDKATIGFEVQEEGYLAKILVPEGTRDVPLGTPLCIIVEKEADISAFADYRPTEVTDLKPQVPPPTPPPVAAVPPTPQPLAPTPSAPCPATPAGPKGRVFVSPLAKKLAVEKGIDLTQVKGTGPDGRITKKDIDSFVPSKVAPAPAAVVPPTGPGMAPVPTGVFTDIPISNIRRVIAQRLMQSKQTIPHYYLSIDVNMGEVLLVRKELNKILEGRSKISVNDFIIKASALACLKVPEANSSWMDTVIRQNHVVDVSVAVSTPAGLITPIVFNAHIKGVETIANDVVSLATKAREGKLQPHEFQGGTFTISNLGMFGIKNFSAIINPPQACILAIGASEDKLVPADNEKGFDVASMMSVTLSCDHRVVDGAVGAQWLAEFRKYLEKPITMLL
T1 sequence (P09622 36-509): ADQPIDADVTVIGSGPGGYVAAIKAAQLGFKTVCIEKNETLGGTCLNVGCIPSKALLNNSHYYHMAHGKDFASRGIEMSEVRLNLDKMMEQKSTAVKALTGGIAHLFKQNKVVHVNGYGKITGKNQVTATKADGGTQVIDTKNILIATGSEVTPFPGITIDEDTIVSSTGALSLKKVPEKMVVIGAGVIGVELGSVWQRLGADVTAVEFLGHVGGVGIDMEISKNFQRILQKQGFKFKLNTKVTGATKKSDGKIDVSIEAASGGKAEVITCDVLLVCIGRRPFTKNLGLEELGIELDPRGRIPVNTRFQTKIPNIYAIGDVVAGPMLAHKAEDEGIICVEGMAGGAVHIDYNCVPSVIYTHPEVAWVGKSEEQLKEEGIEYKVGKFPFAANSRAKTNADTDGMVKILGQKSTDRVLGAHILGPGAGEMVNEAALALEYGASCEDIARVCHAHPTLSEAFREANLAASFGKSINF
Protocol: Cellular metabolic states were examined through various assays. […] Intracellular H2O2, NADPH, acetyl-CoA, and GSH/GSSG ratios were quantified using commercial assay kits as listed in the Reagents. Intracellular ATP levels were determined utilizing the ATP bioluminescent somatic cell assay and normalized to the total protein concentrations. The de novo synthesized RNA and proteins were assessed in cancer cells using commercial assays following the manufacturer’s protocols. In brief, O-propargyl-puromycin or uridine analog, 5-EU, was applied to stop translation or modify RNA. Polypeptides or modified RNA were measured using fluorescent azide with Ex/Em at 494/521 nm. PDC activity was determined by measuring the reduction of NAD+ to NADH during the conversion of pyruvate into acetyl-CoA. To estimate the activity of the pyruvate dehydrogenase complex (PDC), PDH (E1 subunit) activity was measured using the Pyruvate Dehydrogenase Enzyme Activity Microplate Assay Kit (Abcam) according to the manufacturer’s instructions. Briefly, A549^cisR and KB-3-1^cisR cells with or without DLAT knockdown were harvested, washed with PBS, and lysed using the supplied detergent solution. After quantifying protein concentration, lysates were diluted to 10 mg/ml in 1 ⅹ buffer, and 200 μl of assay solution was added to each well, and absorbance at 450 nm was measured kinetically every 30 s for 30 min at room temperature using a microplate reader.

[2] = system: RNA synthesis; assay: Global RNA synthesis (5-EU labeling); format: cell-based, human; set-up: unit not given here
Protocol: Cellular metabolic states were examined through various assays. To gauge the levels of total intracellular or mitochondrial reactive oxygen species (ROS), cells were stained with CM-H2DCFDA or mitoSOX, respectively. Intracellular H2O2, NADPH, acetyl-CoA, and GSH/GSSG ratios were quantified using commercial assay kits as listed in the Reagents. Intracellular ATP levels were determined utilizing the ATP bioluminescent somatic cell assay and normalized to the total protein concentrations. The de novo synthesized RNA and proteins were assessed in cancer cells using commercial assays following the manufacturer’s protocols. In brief, O-propargyl-puromycin or uridine analog, 5-EU, was applied to stop translation or modify RNA. Polypeptides or modified RNA were measured using fluorescent azide with Ex/Em at 494/521 nm. PDC activity was determined by measuring the reduction of NAD+ to NADH during the conversion of pyruvate into acetyl-CoA.

Compound: N.N.[Cl][Pt][Cl] [cisplatin]
- PDC activity ([1]; A549cisR pLKO.1): 0.9844 and 1.125 and 1.078
- PDC activity ([1]; A549cisR shDLAT): 0.375 and 0.4219
- PDC activity ([1]; KB-3-1cisR pLKO.1): 1.12 and 1.073
- PDC activity ([1]; KB-3-1cisR shDLAT): 0.06728 and 0.05145 and 0.04749
- Global RNA synthase ([2]; A549cisR, pLKO.1, n=1 (Figure 3B)): 35.2
- Global RNA synthase ([2]; A549cisR, pLKO.1, n=2 (Figure 3B)): 34.2
- Global RNA synthase ([2]; A549cisR, pLKO.1, n=3 (Figure 3B)): 34.8
- Global RNA synthase ([2]; A549cisR, shDLAT, n=1 (Figure 3B)): 36.6
- Global RNA synthase ([2]; A549cisR, shDLAT, n=2 (Figure 3B)): 34
- Global RNA synthase ([2]; A549cisR, shDLAT, n=3 (Figure 3B)): 33
- Global RNA synthase ([2]; KB-3-1cisR, pLKO.1, n=1 (Figure 3B)): 34.8
- Global RNA synthase ([2]; KB-3-1cisR, pLKO.1, n=2 (Figure 3B)): 33.4
- Global RNA synthase ([2]; KB-3-1cisR, pLKO.1, n=3 (Figure 3B)): 32.4
- Global RNA synthase ([2]; KB-3-1cisR, shDLAT, n=1 (Figure 3B)): 33.6
- Global RNA synthase ([2]; KB-3-1cisR, shDLAT, n=2 (Figure 3B)): 31.4
- Global RNA synthase ([2]; KB-3-1cisR, shDLAT, n=3 (Figure 3B)): 31.6
